Measurements as given in patent publication EP0943336A1, “PEPTIDE-CONTAINING PHARMACEUTICAL COMPOSITIONS FOR ORAL ADMINISTRATION” (DOTT RESEARCH LABORATORY, priority 1996, dated 1999).
Like-named read-outs stand apart in the source and are kept apart here.

Key:
[1] = cynomolgus monkey, in vivo
Description: Both components were mixed to make a composition in which the PTH (1-34) content was 600 µg/200 mg, and the resultant mixture was filled in enteric coating capsules.
The particle diameter of calcium carbonate, AW ceramics, and magnesium oxide used as the carrier was 40 to 45 µm.
A single oral dose of the above-mentioned composition was administered to two cynomolgus monkeys weighing 5 kg. Their blood samples were collected before dosing, and at 30, 60, 90, 120, 180, 240, 300, and 360 minutes after dosing to determine the blood PTH (1-34) level by using ELISA with a 1-34PTH2 antibody.

[2] = design: species or system cynomolgus monkeys; settings: cynomolgus monkey, in vivo
Description: (§1) Then, the resultant mixture was filled in enteric coating capsules.

[3] = Absorption after oral administration of PTH (1-34) composition with diclofenac (blood PTH (1-34) level, ELISA); assay type: in vivo, cynomolgus monkeys; settings: 10 mg diclofenac added to PTH (1-34)/magnesium oxide composition
Description: as §1

[4] = Absorption after oral administration of buserelin composition (blood buserelin level, direct method); assay type: in vivo, cynomolgus monkeys; settings: calcium carbonate carrier, enteric capsules; for level at 2 h / level at 2.5 h: cynomolgus monkey, blood, po; for level at 2 h: 120 min after oral dose; for level at 2.5 h: 150 min after oral dose
Description: The particle diameter of calcium carbonate as the carrier was 40 to 45 µm.

PTH (1-34)
absorption after oral administration (in words) [1]: well absorbed
absorption after oral administration (in words) [2]: well absorbed

O=C(O)Cc1ccccc1Nc1c(Cl)cccc1Cl [diclofenac]
effect of addition on absorption of PTH (1-34) (in words) [3]: enhanced its absorption

CCNC(=O)[C@@H]1CCCN1C(=O)[C@H](CCCNC(=N)N)NC(=O)[C@H](CC(C)C)NC(=O)[C@@H](COC(C)(C)C)NC(=O)[C@H](Cc1ccc(O)cc1)NC(=O)[C@H](CO)NC(=O)[C@H](Cc1c[nH]c2ccccc12)NC(=O)[C@H](Cc1cnc[nH]1)NC(=O)[C@@H]1CCC(=O)N1 [buserelin, Buserelin]
Blood buserelin level ([4]; 30 min after oral dose, Animal No. 1): 30 or less pg/ml
Blood buserelin level ([4]; 30 min after oral dose, Animal No. 2): 30 or less pg/ml
Blood buserelin level ([4]; 30 min after oral dose, Animal No. 3): 30 or less pg/ml
Blood buserelin level ([4]; 45 min after oral dose, Animal No. 1): 30 or less pg/ml
Blood buserelin level ([4]; 45 min after oral dose, Animal No. 2): 30 or less pg/ml
Blood buserelin level ([4]; 45 min after oral dose, Animal No. 3): 30 or less pg/ml
Blood buserelin level ([4]; 60 min after oral dose, Animal No. 1): 30 or less pg/ml
Blood buserelin level ([4]; 60 min after oral dose, Animal No. 2): 30 or less pg/ml
Blood buserelin level ([4]; 60 min after oral dose, Animal No. 3): 30 or less pg/ml
Blood buserelin level ([4]; Before dosing, Animal No. 1, oral): 30 or less pg/ml
Blood buserelin level ([4]; Before dosing, Animal No. 2, oral): 30 or less pg/ml
Blood buserelin level ([4]; Before dosing, Animal No. 3, oral): 30 or less pg/ml
level at 2 h ([4]; Animal No. 1): 0.066 ng/mL
level at 2 h ([4]; Animal No. 2): 0.107 ng/mL
level at 2 h ([4]; Animal No. 3): 0.053 ng/mL
level at 2.5 h ([4]; Animal No. 1): 0.081 ng/mL
level at 2.5 h ([4]; Animal No. 2): 0.193 ng/mL
level at 2.5 h ([4]; Animal No. 3): 0.07 ng/mL
absorption after oral administration (in words) [4]: well absorbed
